Measured values published in patent US8598355B2, “Amide compound” (Astellas Pharma Inc., priority 2008, dated 2013).

Legend:
rat EP4 receptor [1] = target: T1, rat EP4 receptor (Rattus norvegicus, UniProt P43114); assay: Rat EP4 receptor antagonistic activity by measurement of cAMP amount (rEP4 cAMP HTRF assay, CHO cells); format: cell-based; design: expressed in transfected cells; conditions: inhibition of cAMP, PGE2 100 nM, CHO cells expressing rat EP4
Description: Evaluation Test of Rat EP4 Receptor Antagonistic Activity by Measurement of cAMP Amount
CHO cells in which rat EP4 had been forced to be expressed were seeded in 96-well plates at 2×10^4 cells/100 μL and cultured overnight. The culture medium was replaced with 2 μM Indomethacin/0.1% BSA/alpha-MEM, and further, after 60 minutes, replaced with 1 mM IBMX/2 μM Indomethacin/0.1% BSA/alpha-MEM. After 10 minutes, the test compound was added, and further, after 10 minutes, PGE2 was added at a final concentration of 100 nM. The cells were cultured and reacted in a CO2 incubator (37° C., 5% CO2). After 30 minutes, the culture medium was removed and 100 μL/well of 0.2% Triton X-PBS was added for lysis of the cells. The cAMP contained in this cell lysis solution was measured with a cAMP HiRange kit (Cisbio international). The cell lysis solution was disperesed at 10 μL each into a 384-well U-bottom black microplate (Corning), and a d2 reagent and an europium cryptate reagent were added in this order to each well, each in an amount of 5 μL. It was incubated at room temperature for 60 minutes under light shielding. After incubation, the fluorescence of the cryptate at 620 nm and the fluorescence of the d2 at 655 nm were measured using ARVO1420 (PerkinElmer). The cAMPs of 280, 70, 17.5, 4.38, 1.09, 0.27, and 0.068 nM were measured simultaneously for creating a standard curve. The inhibitory rates were calculated by determining the cAMP amount of each test sample to the value obtained by subtracting the cAMP amount of the group without addition of PGE2 from the cAMP amount of the group with addition of PGE2 of 100 nM. IC50 values are calculated by a Logistic regression method.

rat EP4 receptor [2] = target: T1, rat EP4 receptor; assay: Evaluation test of rat EP4 receptor affinity ([3H]PGE2 binding, membrane fraction of HEK293 cells expressing rat EP4); design: expressed in transfected cells; host or cells: HEK293 cells, transient transfection with Lipofectamine 2000; membrane fraction; conditions: [3H]PGE2 0.3 nM
Description: Evaluation Test of Rat EP4 Receptor Affinity
Cell Culturing and Transfection
Using a 10 cm collagen-coated dish (Asahi Glass), HEK293 cells were cultured in D-MEM culture medium, the culture medium was removed at a confluence (90 to 100% density state) and washed with a phosphate buffer saline (PBS), and then the cells were detached with N,N,N′,N′-tetrakis(carboxymethyl)ethylenediamine (EDTA). The number of the cells were counted and seeded on a 15 cm collagen-coated dish to a confluence of 70%. On the next day, to an Opti-MEM culture medium at 1.2 mL/dish was added Lipofectamine 2000 (Invitrogen) at 60 μL/dish, followed by leaving to stand at room temperature for 5 minutes. A plasmid in which rat EP4 (Sequence Number 1) had been inserted into a TA cloning site of pcDNA3.1-V5-His-topo was added thereto at 15 μg/dish. After leaving to stand at room temperature for 30 minutes, the resultant was added to the dish and cultured for 20 to 24 hours. The cell culture was carried out in a CO2 incubator (37° C., 5% CO2).
Preparation of Membrane Fraction
The culture medium was removed by suction, 10 mL of cooled PBS was added thereto per 15 cm dish, and the cells were scraped using a cell scraper (Sumitomo Bakelite). They were washed with cooled PBS (1,200 rpm, 4° C., 5 min), and then suspended in 6 mL of cooled 20 mM Tris-HCl (pH 7.4; Nakalai Tesque Inc., including 5 mM EDTA (Nakalai Tesque Inc.) per dish and the resultant was homogenized using a Polytron and the homogenate was centrifuged (26,000 rpm, 20 min, 4° C.). The obtained precipitate was resuspended in cooled 20 mM Tris-HCl and homogenized again using a Polytron, and the homogenate was centrifuged (26,000 rpm, 20 min, 4° C.). The obtained precipitate was resuspended in 50 mM HEPES (pH 7.5; Dojindo Laboratories) at 1 mL per dish, homogenized using a Polytron, and freeze-stored at −80° C. as a membrane fraction. At this time, a part thereof was used for the measurement of the protein concentration. Measurement of the protein concentration was carried out in duplicate using a Bio-Rad Protein assay kit (Bio-Rad Laboratories) in accordance with the appended standard Protocol.
[^3H]PGE2 50 μL (final concentration 0.3 nM; Perkin Elmer), 100 μL (20 μg/well) of a membrane fraction prepared from the rat EP4 expression cell and 50 μL of a test compound were mixed in a 96-well microplate (Sumitomo Bakelite), incubated at room temperature for 1 hour, filtered by suction on a UniFilter-96 GF/B (Perkin Elmer) using a FilterMate Harvester (Perkin Elmer), and then washed three times with 300 μL/well of a cooled assay buffer. Dilution of [^3H]PGE2 and the membrane fraction was carried out using an assay buffer (50 mM HEPES, 10 mM MgCl2), and dilution of the test compound and the unlabeled PGE2 was carried out using DMSO and an assay buffer. Further, in the case of the addition of a human serum albumin (HSA), dilution was carried out using an assay buffer containing 4% HSA (final concentration 1%; Sigma). The UniFilter-96 GF/B was treated preliminarily by washing twice with 200 μL/well of a cooled assay buffer. The UniFilter-96 GF/B after filtration was dried in a dryer overnight, 50 μL/well of MicroScint20 (Perkin Elmer) was added thereto, and then the radioactivity was measured using a TopCount (Perkin Elmer). For measurement of the non-specific binding, an unlabeled PGE2 (final concentration 1 μM; Cayman) was added. All of the measurements were carried out in duplicate, and the specific binding amount was determined by subtracting the non-specific binding amount from the total binding amount. The Ki value was calculated according to the general methods.
In the connection, Ex represents the below-described Example Compound number.

EP4 receptor = target: T2, EP4 receptor (Homo sapiens, UniProt P35408); assay: EP4 receptor antagonistic activity by measurement of cAMP amount in human Jurkat cells (HTRF); format: cell-based; conditions: inhibition of cAMP, PGE2 100 nM
T2 construct: endogenous in cells; host or cells: Jurkat cells (human leukemia T lymphoma), no transfection described
Description: Evaluation Test of EP4 Receptor Antagonistic Activity by Measurement of cAMP Amount in Human Jurkat Cells
Jurkat cells (derived from human leukemia T lymphoma) were cultured with RPMI1640 (added with 10% fetal bovine serum) using a F75 flask. After proliferation to semiconfluency, indomethacin having a final concentration of 5 μM was added thereto, and the cells were further cultured for 18 hours. The cells were collected in a 15-mL Spitz tube, prepared to be 1×10^6 cells/mL using a Cell Banker (Mitsubishi Kagaku Iatron), and stored at −80° C. until used for assay. The cells were cultured in a CO2 incubator (37° C., 5% CO2).
A cAMP HiRange kit (Cisbio international) was used for cAMP measurement. A test compound, PGE2, and the cells were diluted and prepared with an assay buffer. The test compound was prepared to have a 3-fold concentration relative to the final concentration, PGE2 was prepared to be 300 nM, and the Jurkat cells frozen stored were prepared to be 1×10^6 cells/mL by thawing them at 37° C. To a 384-well U-bottom black microplate (Corning) were added the test compound, the cells, and PGE2 in this order in each in an amount of 5 μL, followed by shaking with a plate shaker and incubating at room temperature for 30 minutes. After incubation, 5 μL of a d2 reagent which had been diluted 0.6-fold with a lysis buffer was added to each well, followed by shaking with a plate shaker. Subsequently, 5 μL of an europium cryptate reagent which had been diluted 0.6-fold with a lysis buffer was added to each well, followed by shaking with a plate shaker and incubating at room temperature for 60 minutes under light shielding. After incubation, the fluorescence of the cryptate at 620 nm and the fluorescence of the d2 at 655 nm were measured using ARVO1420 (PerkinElmer). The cAMPs of 280, 70, 17.5, 4.38, 1.09, 0.27, and 0.068 nM were measured simultaneously for creating a standard curve. All measurements were performed in quadruplicate, and inhibitory rates were calculated by determining the cAMP amount of each test sample to the value obtained by subtracting the cAMP amount of the group without addition of PGE2 from the cAMP amount of the group with addition of PGE2 of 100 nM. IC50 values were calculated by a Logistic regression method.
In this connection, as the “assay buffer” and “lysis buffer” above, those as shown below were used:
Assay buffer; 1×HBSS (Hanks buffered salt solution, Nissui Pharmaceutical Co., Ltd.), 20 mM HEPES (pH 7.4, Nakarai Tesque), 0.5 mM IBMX (3-isobutyl-1-methylxanthine, WAKO), 0.02% CHAPS (Sigma), 0.1% Bovine serum albumin (Sigma), 2 μM Indomethacin (Sigma)
Lysis buffer; 50 mM NaPO4, 0.8 M KF, 1% Triton X-100, 0.2% Bovine serum albumin

rat EP4 receptor [3] = target: T1, rat EP4 receptor; assay: In vivo rat EP4 receptor antagonistic activity (ONO-4819/LPS, plasma TNF-α); conditions: SD rat, oral
Description: Evaluation Test of In Vivo Rat EP4 Receptor Antagonistic Activity
A solution of PEG 400:20% Tween 80:aqueous 1 M NaHCO3 solution=1:4:5 of a test compound was orally administered to a SD rat (male, 6-week old) under non-fasting conditions, and after 1 hour, ONO-4819 was administered subcutaneously to the back of the rat. After 30 minutes, Lipopolysaccharide (LPS, 0.01 mg/kg) was administered to the tail vein without anesthesia, and after 60 minutes, 0.5 mL of heparin blood was collected from the fundus under ether anesthesia. The blood sample was centrifuged (3000 rpm, 10 minutes) to separate the plasma, and then the TNF-α concentration in the rat plasma was measured by an ELISA kit (see Hepatology Research Journal, vol. 21, 252-260, 2001). A value obtained by subtracting the TNF-α concentration of the group treated with ONO-4819 from the TNF-α concentration of the group not treated with ONO-4819 was taken as 100%, and the inhibitory rates to the value were calculated for the test compounds.
In this connection, Ex represents the below-described Example compound number.

T1 sequence (P43114 whole entry): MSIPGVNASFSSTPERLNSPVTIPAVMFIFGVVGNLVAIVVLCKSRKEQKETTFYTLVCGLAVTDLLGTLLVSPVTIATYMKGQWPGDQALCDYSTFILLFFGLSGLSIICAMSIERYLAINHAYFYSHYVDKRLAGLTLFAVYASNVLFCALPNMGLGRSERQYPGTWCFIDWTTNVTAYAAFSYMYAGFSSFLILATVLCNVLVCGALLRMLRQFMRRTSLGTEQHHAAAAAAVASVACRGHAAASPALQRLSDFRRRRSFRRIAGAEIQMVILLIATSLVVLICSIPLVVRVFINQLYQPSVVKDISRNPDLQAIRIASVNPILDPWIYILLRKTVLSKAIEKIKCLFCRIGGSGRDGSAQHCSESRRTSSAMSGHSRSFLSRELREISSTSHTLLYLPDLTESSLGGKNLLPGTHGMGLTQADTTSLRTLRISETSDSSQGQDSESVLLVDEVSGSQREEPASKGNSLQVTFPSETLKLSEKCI
T2 sequence (P35408 whole entry): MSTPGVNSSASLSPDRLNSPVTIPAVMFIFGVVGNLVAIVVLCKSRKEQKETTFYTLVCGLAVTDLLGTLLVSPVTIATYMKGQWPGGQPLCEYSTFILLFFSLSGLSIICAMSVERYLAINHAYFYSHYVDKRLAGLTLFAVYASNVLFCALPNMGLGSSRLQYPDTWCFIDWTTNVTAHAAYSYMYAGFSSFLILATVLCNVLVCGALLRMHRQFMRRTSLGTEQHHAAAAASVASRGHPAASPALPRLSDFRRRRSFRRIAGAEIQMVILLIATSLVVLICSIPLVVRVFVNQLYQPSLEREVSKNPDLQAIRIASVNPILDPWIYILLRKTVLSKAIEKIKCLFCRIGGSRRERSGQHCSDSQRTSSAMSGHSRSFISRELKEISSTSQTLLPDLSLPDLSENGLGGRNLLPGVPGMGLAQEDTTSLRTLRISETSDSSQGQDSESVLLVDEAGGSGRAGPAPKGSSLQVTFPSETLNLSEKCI

Row | IC50 (rat EP4 receptor [1]) | Ki (rat EP4 receptor [2]) | IC50 (EP4 receptor) | Inhibitory rate (%) (rat EP4 receptor [3]; dose 0.01 mg/kg) | melting point | Inhibitory rate (%) (rat EP4 receptor [3]; dose 0.003 mg/kg) | SMILES
1 | 0.99 nM | 0.76 nM | 0.11 nM |  |  |  | C[C@H](NC(=O)c1cccc2ccn(Cc3ccc(-c4ccccc4)cc3)c12)c1ccc(C(=O)O)cc1 [Example 3, 4-[(1S)-1-({[1-(biphenyl-4-ylmethyl)-1H-indol-7-yl]carbonyl}amino)ethyl]benzoic acid]
2 |  | 2.6 nM |  | 71% | 208 to 210 °C |  | O=C(O)c1ccc(CNC(=O)c2cc(C(F)(F)F)cc3ccn(CCOc4ccc(Cl)cc4)c23)cc1 [Example 215]
3 |  | 2.1 nM |  |  | 251 to 252 °C (dec.) | 71% | Cc1cc(C(=O)NC[C@H]2CC[C@H](C(=O)O)CC2)c2c(ccn2Cc2cc3ccccc3cn2)c1 [Example 224]
